As usually defined, the IC50 is the point on the concentration scale where inhibition reaches its midpoint.

Assay [1] deals with MDA-MB-231. The assay is described as follows: Anticancer activity against human MDA-MB-231 cells assessed as cell growth inhibition incubated for 24 hrs by MTT assay. The class given is functional, cell-based. Conditions: MDA-MB-231, 24 h. (Tetrazolium assays rely on reduction of a dye to a coloured formazan, in cell work by metabolically active cells.)
The test system of assay [2] is MDA-MB-436. The assay is described as follows: Anticancer activity against human MDA-MB-436 cells assessed as cell growth inhibition incubated for 24 hrs by MTT assay. The class given is functional, cell-based. Conditions: MDA-MB-436, 24 h.
Assay [3] deals with BT-549. The assay is described as follows: Anticancer activity against human BT-549 cells assessed as cell growth inhibition incubated for 24 hrs by MTT assay. The following applies: BT-549, 24 h. The class given is functional, cell-based.
Assay [4] can be described thus: Inhibition of ERK (unknown origin). Further details: species or system Homo sapiens.
Assay [5] in a line: Inhibition of MEK (unknown origin). Further details: species or system Homo sapiens.
In assay [6] the target is Protein tyrosine phosphatase type IVA 3 (Homo sapiens) (UniProt O75365). The assay is described as follows: Inhibition of human PRL-3 incubated for 48 hrs by MMP assay.
In assay [7] the test system is MDA-MB-231. The assay is described as follows: Anticancer activity against human MDA-MB-231 cells assessed as cell growth inhibition. The format is functional, cell-based.
The test system of assay [8] is HCC70. The assay is described as follows: Anticancer activity against human HCC70 cells assessed as cell growth inhibition incubated up to 72 hrs by Cell-Titre Glo assay. The format is functional, cell-based. The following applies: HCC70, 72 h.
Assay [9] relates to MDA-MB-231. The assay is described as follows: Anticancer activity against human MDA-MB-231 cells assessed as cell growth inhibition incubated up to 72 hrs by Cell-Titre Glo assay. The format is functional, cell-based. Conditions: MDA-MB-231, 72 h.
Assay [10] relates to MDA-MB-436. The assay is described as follows: Anticancer activity against human MDA-MB-436 cells assessed as cell growth inhibition incubated for 72 hrs by MTT assay. The class given is functional, cell-based. Conditions: MDA-MB-436, 72 h.
Assay [11] deals with MDA-MB-231. The assay is described as follows: Anticancer activity against human MDA-MB-231 cells assessed as cell growth inhibition incubated for 72 hrs by MTT assay. The class given is functional, cell-based. Conditions: MDA-MB-231, 72 h.
For assay [12], the system named is MDA-MB-231. The assay is described as follows: Anticancer activity against human MDA-MB-231 cells assessed as cell growth inhibition by MTT assay. The class given is functional, cell-based.
Assay [13] has as its system HCC1806. The assay is described as follows: Anticancer activity against human HCC1806 cells assessed as cell growth inhibition incubated for 24 hrs by MTS assay. The class given is functional, cell-based. The following applies: HCC1806, 24 h.
Assay [14] relates to HCC1937. The assay is described as follows: Anticancer activity against human HCC1937 cells assessed as cell growth inhibition incubated for 24 hrs by MTS assay. The following applies: HCC1937, 24 h. The class given is functional, cell-based.
Assay [15] has as its target Dual specificity mitogen-activated protein kinase kinase 1 (Homo sapiens, UniProt Q02750). The assay is described as follows: Inhibition of MEK1 (unknown origin).
The test system of assay [16] is MDA-MB-468. The assay is described as follows: Anticancer activity against human MDA-MB-468 cells assessed as cell growth inhibition incubated for 48 hrs by BrdU assay. The class given is functional, cell-based. The following applies: MDA-MB-468, 48 h.
The test system of assay [17] is MDA-MB-231. The assay is described as follows: Anticancer activity against human MDA-MB-231 cells assessed as cell growth inhibition incubated for 48 hrs by BrdU assay. The class given is functional, cell-based. The following applies: MDA-MB-231, 48 h. In general terms: Incorporation of labelled thymidine or its analogues reports DNA synthesis.
The target of assay [18] is Proto-oncogene tyrosine-protein kinase Src (Homo sapiens, UniProt P12931). The assay is described as follows: Inhibition of human SRC by microplate reader analysis.
Assay [19] deals with 4T1. The assay is described as follows: Anticancer activity against mouse 4T1 cells assessed as cell growth inhibition by MTS assay. The class given is functional, cell-based.
Assay [20] has as its system BT-20. The assay is described as follows: Anticancer activity against human BT-20 cells assessed as cell growth inhibition incubated for 5 days by sulforhodamine B staining based assay. The class given is functional. The following applies: BT-20, 120 h. Background: The SRB assay estimates cell density from bound dye.
The test system of assay [21] is MDA-MB-231. The assay is described as follows: Anticancer activity against human MDA-MB-231 cells assessed as cell growth inhibition incubated for 5 days by sulforhodamine B staining based assay. The format is functional. Conditions: MDA-MB-231, 120 h.
In assay [22] the test system is HCC1937. The assay is described as follows: Anticancer activity against human HCC1937 cells assessed as cell growth inhibition incubated for 5 days by sulforhodamine B staining based assay. Conditions: HCC1937, 120 h. The class given is functional.
Assay [23] concerns SUM-159-PT. The assay is described as follows: Anticancer activity against human SUM159 cells assessed as cell growth inhibition incubated for 5 days by sulforhodamine B staining based assay. The class given is functional. The following applies: 120 h.
In assay [24] the test system is HCC1806. The assay is described as follows: Anticancer activity against human HCC1806 cells assessed as cell growth inhibition incubated for 5 days by sulforhodamine B staining based assay. The class given is functional. The following applies: HCC1806, 120 h.
Assay [25] has as its system HCC70. The assay is described as follows: Anticancer activity against human HCC70 cells assessed as cell growth inhibition incubated for 5 days by sulforhodamine B staining based assay. The class given is functional. Conditions: HCC70, 120 h.
Assay [26] relates to SUM149PT. The assay is described as follows: Anticancer activity against human SUM149 cells assessed as cell growth inhibition incubated for 5 days by sulforhodamine B staining based assay. The format is functional. Conditions: 120 h.
Assay [27] relates to BT-549. The assay is described as follows: Anticancer activity against human BT-549 cells assessed as cell growth inhibition by MTT assay. The class given is functional, cell-based.
The test system of assay [28] is HCC1937. The assay is described as follows: Anticancer activity against human HCC1937 cells assessed as cell growth inhibition by MTT assay. The class given is functional, cell-based.
In assay [29] the test system is HCC1806. The assay is described as follows: Anticancer activity against human HCC1806 cells assessed as cell growth inhibition incubated for 48 hrs by SRB assay. The format is functional, cell-based. Conditions: HCC1806, 48 h.

Protein tyrosine phosphatase type IVA 3 (Homo sapiens), sequence (O75365 whole entry): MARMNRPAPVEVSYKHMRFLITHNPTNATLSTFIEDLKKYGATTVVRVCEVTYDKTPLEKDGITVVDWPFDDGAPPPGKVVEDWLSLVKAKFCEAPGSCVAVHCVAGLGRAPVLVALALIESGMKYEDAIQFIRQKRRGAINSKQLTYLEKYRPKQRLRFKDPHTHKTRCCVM
Proto-oncogene tyrosine-protein kinase Src, sequence (P12931 2-536 limits assumed): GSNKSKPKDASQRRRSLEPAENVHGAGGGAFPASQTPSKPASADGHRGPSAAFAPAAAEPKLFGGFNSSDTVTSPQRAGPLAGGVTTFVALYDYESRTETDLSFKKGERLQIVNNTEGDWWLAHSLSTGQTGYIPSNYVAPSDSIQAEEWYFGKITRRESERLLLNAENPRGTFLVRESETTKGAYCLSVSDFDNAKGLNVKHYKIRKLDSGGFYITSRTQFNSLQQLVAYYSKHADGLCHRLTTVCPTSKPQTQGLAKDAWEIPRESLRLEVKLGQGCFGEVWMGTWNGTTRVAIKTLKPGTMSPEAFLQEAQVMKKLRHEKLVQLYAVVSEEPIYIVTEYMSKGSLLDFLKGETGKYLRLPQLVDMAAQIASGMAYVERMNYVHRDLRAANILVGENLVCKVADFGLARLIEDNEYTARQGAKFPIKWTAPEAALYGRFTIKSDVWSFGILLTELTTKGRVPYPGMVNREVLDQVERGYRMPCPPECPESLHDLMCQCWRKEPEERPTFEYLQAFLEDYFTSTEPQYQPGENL
Dual specificity mitogen-activated protein kinase kinase 1, sequence (Q02750 whole entry): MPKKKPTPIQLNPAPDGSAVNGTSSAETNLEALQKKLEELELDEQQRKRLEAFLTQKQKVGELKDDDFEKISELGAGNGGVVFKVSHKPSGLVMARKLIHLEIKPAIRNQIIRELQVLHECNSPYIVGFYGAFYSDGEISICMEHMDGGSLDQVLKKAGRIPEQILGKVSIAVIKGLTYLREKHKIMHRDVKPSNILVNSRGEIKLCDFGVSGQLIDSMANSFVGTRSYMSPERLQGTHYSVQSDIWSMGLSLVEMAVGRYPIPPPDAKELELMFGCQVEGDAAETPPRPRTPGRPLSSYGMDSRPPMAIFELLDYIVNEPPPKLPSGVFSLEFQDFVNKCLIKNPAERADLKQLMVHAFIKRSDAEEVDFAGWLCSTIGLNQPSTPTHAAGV

Turning to `C=C1C(=O)O[C@]2(C)CC[C@H](CBr)[C@]12O`, the concentration for half-maximal inhibition (IC50) in assay [1] is 12.1 µM; in [2], 11.8 µM; in assay [3], 9.63 µM.
Take `CCOC(=O)C1=C(C)NC(=O)NC1c1cccc([N+](=O)[O-])c1` (configuration not stated): the IC50 in assay [4] and in assay [5] was 50 µM each time.
`C=C1/C(=C\C=C2/CCC[C@]3(C)[C@@H]([C@H](C)CCCC(C)(C)O)CC[C@@H]23)C[C@@H](OC(=O)CBr)C[C@@H]1O` displayed an IC in assay [6] of 100 nM.
Regarding `C=C1C(=O)O[C@]2(C)CC[C@H](CBr)[C@]12OC`, the IC50 came out at 7.91 µM in assay [1], 8.63 µM in assay [2] and 6.61 µM in assay [3].
For the compound `OC[C@H]1O[C@@H](OCCc2ccc(O)cc2)[C@H](O)[C@@H](O)[C@@H]1O` [SALIDROSIDE], the IC50 in assay [1] came to 40 µM.
Regarding `CO[C@H]1C[C@H](C)Cc2cc(O)cc(c2)NC(=O)/C(C)=C/CC[C@H](OC)[C@@H](OC(N)=O)/C(C)=C/[C@H](C)[C@H]1O`, in assay [7], the 50% inhibitory concentration (IC50) was determined as 74.9 µM.
For `CC(=O)O[C@@H]1[C@@H](OC(C)=O)[C@@H](O)[C@H](Oc2c(-c3ccc(O)cc3)oc3cc(O)cc(O)c3c2=O)O[C@H]1C`, the IC50 in assay [8] worked out at 15 µM; in assay [9], 3 µM.
For `CNCCC(Oc1ccc(C(F)(F)F)cc1)c1ccccc1` (configuration not stated) [FLUOXETINE], the IC50 in assay [1] and in assay [2] was 0.5 µM in each case.
`C=C1C(=O)O[C@@H]2/C=C(\C)[C@@H](O)C/C=C(/C)C[C@@H](OC(=O)/C(C)=C/CO)[C@@H]12`: the IC50 in assay [10] is 3.04 µM; in [11], 3.21 µM.
Take `O=C(/C=C/c1ccc(O)c(O)c1)O[C@@H]1C[C@](OC(=O)/C=C/c2ccc(O)c(O)c2)(C(=O)O)C[C@@H](O)[C@H]1O` [1,5-O-TRANS-DICAFFEOYLQUINIC ACID]: the IC50 in assay [12] amounted to 81.9 µM.
In the case of `COC(=O)[C@@H](O)[C@](O)(CCC(C)C)C(=O)O[C@@H]1C(OC)=C[C@]23CCCN2CCc2cc4c(cc2[C@H]13)OCO4`, the results for the concentration for half-maximal inhibition (IC50) in assay [13] and in assay [14] were 0.1 µM and 0.5 µM, respectively.
For the compound `O=C(c1ccc(F)c(F)c1Nc1ccc(I)cc1F)N1CC(O)([C@@H]2CCCCN2)C1` [COBIMETINIB], the IC50 in [15] amounted to 4.2 µM.
Turning to `CC(C)CC[C@@H]1NC(=O)[C@]2(C)CCCN2C1=O`, the values for the IC50 in assay [16] and in [17] were 67.4 µM and 73.4 µM, respectively.
In [18], `Cc1nc2c(c(C)c1O)CC(=O)N2` displayed an IC50 of 3.23 µM.
For `CCN(CC)C(=S)SSC(=S)N(CC)CC`, the IC50 in [19] was 0.25 µM.
As to `CCNc1cc(O)c2c(c1)/C=C/C[C@H](O)[C@H](O)C(=O)/C=C\[C@@H](C)[C@H](C)OC2=O` [E-6201], the half-inhibitory concentration (IC50) in assay [20] is 10.1 µM; in assay [21], 0.25 µM; in [22], 3.73 µM; in assay [23], 2.36 µM; in assay [24], 2.5 µM; in assay [25] it was 8.79 µM. The IC50 in [26] was 0.21 µM.
In the case of `CC(=O)N1c2ccccc2Oc2ccccc21`, in assay [1], the half-maximal inhibitory concentration (IC50) turned out to be 0.3 µM.
Consider `Cc1cc(C=C2C(=O)C=CC2=O)cc(C)c1O`, for which the IC50 was 27.5 µM in assay [27] and 51.1 µM in assay [28].
As to `C[C@H]1[C@H](C)CC[C@]2(C(=O)N3CCNCC3)CC[C@]3(C)C(=CC[C@@H]4[C@@]5(C)Cc6cn[nH]c6C(C)(C)[C@@H]5CC[C@]43C)[C@H]12`, the concentration for half-maximal inhibition (IC50) in assay [29] came out at 7 µM.
For the compound `C=Cc1c(C)c2cc3nc(c4c5nc(cc6[nH]c(cc1[nH]2)c(C)c6CC)C(C)=C5C(=O)[C@@H]4C(=O)OC)C(CCC(=O)O)=C3C`, the half-maximal inhibitory concentration (IC50) in assay [11] is 6.5 µM.

The record behind these values is ChEMBL document CHEMBL5226297, “Small-Molecule Drug Discovery in Triple Negative Breast Cancer: Current Situation and Future Directions” (J Med Chem, 2021).
